The record followed here is patent publication US10179789B2, “Methylenedioxybenzo [I] phenanthridine derivatives used to treat cancer” (Rutgers, The State University of New Jersey, priority 2009, dated 2019).

Structures are written as SMILES. Like-named read-outs stand apart in the source and are kept apart here.

The target of one data set is T1, human topoisomerase I (Homo sapiens, UniProt P11387).
T1 construct: unnamed fusion partner (recombinant fusion protein, T7 expression system); made in house; host or cells: Escherichia coli
T1 sequence (P11387 1-765): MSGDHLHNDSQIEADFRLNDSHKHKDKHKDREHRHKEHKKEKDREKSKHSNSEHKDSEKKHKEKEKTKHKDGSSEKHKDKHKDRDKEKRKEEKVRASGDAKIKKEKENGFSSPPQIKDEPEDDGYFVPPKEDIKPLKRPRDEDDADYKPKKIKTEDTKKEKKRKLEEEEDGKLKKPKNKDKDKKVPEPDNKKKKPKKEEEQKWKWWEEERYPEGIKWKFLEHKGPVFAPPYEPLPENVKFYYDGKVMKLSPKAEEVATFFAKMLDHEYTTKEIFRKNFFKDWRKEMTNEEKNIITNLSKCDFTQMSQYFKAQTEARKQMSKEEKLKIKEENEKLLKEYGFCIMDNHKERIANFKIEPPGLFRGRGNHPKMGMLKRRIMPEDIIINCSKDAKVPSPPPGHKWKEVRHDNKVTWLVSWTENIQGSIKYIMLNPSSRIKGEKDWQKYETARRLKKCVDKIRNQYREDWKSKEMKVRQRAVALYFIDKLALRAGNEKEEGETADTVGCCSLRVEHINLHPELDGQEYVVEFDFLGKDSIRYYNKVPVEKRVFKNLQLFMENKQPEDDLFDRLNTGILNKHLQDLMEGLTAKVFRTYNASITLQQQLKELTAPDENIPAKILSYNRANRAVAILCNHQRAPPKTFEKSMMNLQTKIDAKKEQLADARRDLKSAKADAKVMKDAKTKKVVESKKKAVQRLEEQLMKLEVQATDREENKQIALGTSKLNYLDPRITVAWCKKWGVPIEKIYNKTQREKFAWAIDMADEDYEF
The data set is described as follows: Test A. Topoisomerase I-mediated DNA cleavage assay. The class given is biochemical. To be noted: Relative Effective Concentration; relative to camptothecin arbitrarily assumed as 0.2; same 10% cleavage on plasmid DNA. An excerpt: Test A. Topoisomerase I—Mediated DNA Cleavage Assay Human topoisomerase I was expressed in Escherichia coli and isolated as a recombinant fusion protein using a T7 expression system as described previously (31). Plasmid YepG was also purified by the alkali lysis method followed by phenol deproteination and CsCl/ethidium isopycnic centrifugation method as described (32). The 3′ end labeling of the plasmid was accomplished by digestion with a restriction enzyme followed by end filling with Klenow polymerase as previously described (33). The cleavage assays were performed as previously reported (34,35). The drug and the DNA in presence of topoisomerase I was incubated for 30 min at room temperature. The reactions were terminated by the addition of 5 μL of 5% SDS and 1 mg/mL […] with an additional 1 h of incubation at 37° C. […] After development of the gels, typically 24-h exposure was used to obtain autoradiograms outlining the extent of DNA fragmentation. Topoisomerase I-mediated DNA cleavage values are reported as Relative Effective Concentration (REC). […] Results for the assay for representative compounds of the invention of formula I along with comparison compounds are shown in Table 1.

For data set [1], the system named is CPT-K5 (camptothecin-resistant variant of RPMI 8402). The data set is described as follows: Test B. MTT cytotoxicity assay, CPT-K5. The format is cell-based, human. To be noted: Homo sapiens, read-out: Cytotoxicity IC50 CPT-K5. How it is done: (§1) Test B. Cytotoxic Assays (Cancer Cell Lines and Efflux Transporter Cell Lines)
(§2) The cytotoxicity was determined using the MTT-microtiter plate tetrazolinium cytotoxicity assay (MTA). The human lymphoblast RPMI 8402 and its camptothecin-resistant variant cell line, CPT-K5 was provided by Dr. Toshiwo Andoh (Aichi Cancer Center Research Institute, Nagoya, Japan). (36) The P388 mouse leukemia cell line and its CPT-resistant TOP1-deficient variant P388/CPT45 (37) were obtained from Michael R. Mattern and Randal K. Johnson (GlaxoSmithKline, King of Prussia, Pa.). The KB3-1 cell line and its multidrug-resistant variant KBV-1 (38) were obtained from K. V. Chin (The Cancer Institute of New Jersey, New Brunswick, N.J.). The KBH5.0 cell line as noted previously (21) was derived from KB3-1 by stepwise selection against Hoechst 33342. The cytotoxicity assay was performed using 96-well microtiter plates. Cells were grown in suspension at 37° C. in 5% CO2 and maintained by regular passage in RPMI medium supplemented with 10% heat inactivated fetal bovine serum, L-glutamine (2 mM), penicillin (100 U/mL), and Streptomycin (0.1 mg/mL). For determination of IC50, cells were exposed continuously for FOUR days to varying concentrations of drug, and MTT assays were performed at the end of the fourth day. […] All assays were performed at least twice in six replicate wells.
On the technique in general: Formazan colour is commonly taken as a measure of viable cells.

Data set [2] in a line: Cytotoxicity on KB3-1 (parent cell line). The format is cell-based. As to conditions: human. How it is done: as §2
(§3) The cytotoxicity of the representative compounds of the invention were also tested on cell line KB3-1 (parent cell line), KBV-1 (a variant that overexpresses efflux transporter MDR1) and KBH5.0 (a variant that overexpresses BCRP). Differences in the relative cytotoxicity between the parent and variant cell lines may be indicative of a compound that is a substrate for an efflux transporter. […] Accordingly, compounds of the invention of formula I may be useful to treat tumors that are resistant to other anticancer agents, especially anticancer agents that are susceptible to efflux by BCRP (e.g. anthracyclines, mitoxantrone, topotecan, irinotecan, bisanthrone, doxorubicin, daunorubicin, and epirubin.

For another data set, the system named is MDR1. The data set is described as follows: Cytotoxicity on KBV-1 (overexpresses MDR1). The format is cell-based. As to conditions: human. On the procedure: as §2, §3
A further data set concerns BCRP. As to the kind of experiment: Cytotoxicity on KBH5.0 (overexpresses BCRP). The class given is cell-based. To be noted: human. How it is done: as §2, §3
Data set [3] relates to RPMI 8402 human lymphoblast cells. As to the kind of experiment: Test B. MTT cytotoxicity assay, RPMI8402. The class given is cell-based. To be noted: Homo sapiens, RPMI 8402, 96 h, read-out: Cytotoxicity IC50 RPMI8402. How it is done: as §1, §2
For data set [4], the system named is P388/CPT45 (CPT-resistant TOP1-deficient variant of P388). The data set is described as follows: Test B. MTT cytotoxicity assay, P388/CPT45. The class given is cell-based, mouse. As to conditions: Mus musculus, P388CPT45, 96 h, read-out: Cytotoxicity IC50 P388/CPT45. How it is done: as §1, §2
In data set [5] the test system is P388 mouse leukemia cell line. The data set is described as follows: Test B. MTT cytotoxicity assay, P388. As to conditions: Mus musculus, read-out: Cytotoxicity IC50 P388. The format is cell-based. How it is done: as §1, §2

Consider `CC[C@@]1(O)C(=O)OCc2c1cc1n(c2=O)Cc2cc3ccccc3nc2-1` [CPT, Camptothecin, reference compound], for which the “TOP1 Mediated DNA Cleavage (REC Value)” value at human topoisomerase I is given as 0.2. Besides, the IC50 in data set [1] (96 h, CPT-K5, four days continuous exposure, MTT) was over 10000 nM; in data set [3] (RPMI8402, four days continuous exposure, MTT), 6 nM; in data set [4] it was over 10000 nM; in [5] (96 h, P388, four days continuous exposure, MTT), 14 nM. Further, the IC50 at 4 days in data set [2] (KB3-1 cells (parent cell line), KB3-1 parent cell line, read-out: Cytotoxicity KB3-1) was found to be 15 nM; with MDR1 (KBV-1, overexpresses MDR1, read-out: Cytotoxicity KBV-1), 25 nM; with BCRP (KBH5.0 cells (KB3-1 variant that overexpresses BCRP), KBH5.0, overexpresses BCRP, read-out: Cytotoxicity KBH5.0), 26 nM.
With `COc1cc2c(C(=O)NCC(C)(C)N)cc3c4cc5c(cc4ncc3c2cc1OC)OCO5` [Compound 33, N-(2-Amino-2-methylpropyl)-2,3-dimethoxy-8,9-methylenedioxybenzo[i]phenanthridine-12-carboxamide], the melting point was 269 to 271 °C (dec.). At human topoisomerase I, the “TOP1 Mediated DNA Cleavage (REC Value)” value came to 1.1. Moreover, in [1] (CPT-K5, 96 h), the IC50 worked out at 2200 nM. The IC50 at 4 days in data set [2] was 4 nM. The same compound showed an IC50 at 4 days in the data set with MDR1 of 480 nM. For the same compound, the IC50 at 4 days in the data set on BCRP came to 190 nM. The IC50 in [3] was found to be 10 nM. Also, the IC50 in data set [4] came to 760 nM. The IC50 in [5] (P388, 96 h) stood at 20 nM.
Compound `COc1cc2c(C(=O)NCCC(C)(C)N(C)C)cc3c4cc5c(cc4ncc3c2cc1OC)OCO5` [Compound 42, 2,3-Dimethoxy-N-(3-(dimethylamino)-3-methylbutyl)-8,9-methylenedioxybenzo[i]phenanthridine-12-carboxamide] had a melting point of 228 to 230 °C. Moreover, the “TOP1 Mediated DNA Cleavage (REC Value)” value on human topoisomerase I was 2.3. Also, the IC50 in data set [1] (CPT-K5, 96 h) was determined as 2070 nM. Also, the IC50 at 4 days in data set [2] came out at 50 nM. Further, the IC50 at 4 days with MDR1 worked out at 2500 nM. Moreover, in the data set with BCRP, the IC50 at 4 days was determined as 160 nM. The IC50 in [3] is 25 nM. Moreover, the IC50 in [4] stood at 530 nM. Moreover, the IC50 in [5] (P388, 96 h) is 90 nM.
Take `COc1cc2c(C(=O)NCCCC(C)(C)N(C)C)cc3c4cc5c(cc4ncc3c2cc1OC)OCO5` [Compound 43, 2,3-Dimethoxy-N-(4-(dimethylamino)-4-methylpentyl)-8,9-methylenedioxybenzo[i]phenanthridine-12-carboxamide]: the melting point lay within 235 to 237 °C. Further, the “TOP1 Mediated DNA Cleavage (REC Value)” value on human topoisomerase I turned out to be 3.4. In addition, the IC50 in data set [1] (CPT-K5, 96 h) amounted to 3000 nM. Moreover, in [2], the IC50 at 4 days was found to be 250 nM. The IC50 at 4 days in the data set on MDR1 worked out at 2800 nM. The IC50 at 4 days with BCRP amounted to 600 nM. In addition, the IC50 in data set [3] came out at 160 nM. For the same compound, the IC50 in data set [4] stood at 400 nM. For the same compound, the IC50 in data set [5] (P388, 96 h) stood at 180 nM.
`COc1cc2cc(C(=O)NCCC(C)(C)N(C)C)c3c4cc5c(cc4ncc3c2cc1OC)OCO5` [Compound 44, 2,3-Dimethoxy-8,9-methylenedioxybenzo[i]phenanthridine-11-carboxylic acid 3-(dimethylamino)-3-methylbutylamide] came in with a melting point of 233 to 235 °C. Also, at human topoisomerase I, the “TOP1 Mediated DNA Cleavage (REC Value)” value was 0.4. In addition, in data set [1] (CPT-K5, 96 h), the IC50 worked out at 5000 nM. In addition, in data set [2], the IC50 at 4 days is 240 nM. In the data set on MDR1, the IC50 at 4 days was over 10000 nM. For the same compound, the IC50 at 4 days in the data set with BCRP turned out to be 470 nM. Besides, the IC50 in data set [3] worked out at 150 nM. For the same compound, the IC50 in [4] came out at 1270 nM. In data set [5] (P388, 96 h), the IC50 stood at 270 nM.
`COc1cc2cc(C(=O)NCCCC(C)(C)N(C)C)c3c4cc5c(cc4ncc3c2cc1OC)OCO5` [Compound 45, 2,3-Dimethoxy-8,9-methylenedioxybenzo[i]phenanthridine-11-carboxylic acid 4-(dimethylamino)-4-methylpentylamide] came in with a melting point of 239 to 242 °C. For the same compound, the “TOP1 Mediated DNA Cleavage (REC Value)” value at human topoisomerase I worked out at 2.5. In addition, the IC50 in data set [1] (CPT-K5, 96 h) came out at 5500 nM. Besides, in data set [2], the IC50 at 4 days turned out to be 210 nM. The IC50 at 4 days in the data set on MDR1 was over 10000 nM. Moreover, the IC50 at 4 days in the data set with BCRP turned out to be 850 nM. The IC50 in data set [3] came out at 280 nM. In addition, the IC50 in data set [4] was found to be 3250 nM. For the same compound, the IC50 in data set [5] (P388, 96 h) was determined as 280 nM.
As to `COc1cc2c(C(=O)NCCN(C)C)cc3c4cc5c(cc4ncc3c2cc1OC)OCO5` [Compound 206, reference compound], the “TOP1 Mediated DNA Cleavage (REC Value)” value at human topoisomerase I is 0.1. Besides, the IC50 in [1] (CPT-K5, 96 h) stood at 1000 nM; in data set [3], 3 nM; in data set [4], 320 nM; in data set [5] (P388, 96 h), 3 nM. Also, the IC50 at 4 days in [2] stood at 5 nM; with MDR1, 220 nM; in the data set on BCRP it was 60 nM.
In the case of `COc1cc2cc(C(=O)NCCN(C)C)c3c4cc5c(cc4ncc3c2cc1OC)OCO5` [Compound 216, reference compound], the “TOP1 Mediated DNA Cleavage (REC Value)” value on human topoisomerase I is reported as 0.2. Besides, the IC50 came to 630 nM in data set [1] (CPT-K5, 96 h); 35 nM in [3]; 260 nM in data set [4]; 15 nM in [5] (P388, 96 h). Also, the values for the IC50 at 4 days (in data set [2]; with MDR1; with BCRP) were 27 nM, 1400 nM and 200 nM, respectively.
`CC[C@@]1(O)C(=O)OCc2c1cc1n(c2=O)Cc2cc3c(CN(C)C)c(O)ccc3nc2-1` [Topotecan, topotecan, reference compound]: the “TOP1 Mediated DNA Cleavage (REC Value)” value on human topoisomerase I is 1.0. Also, the IC50 in data set [1] (CPT-K5, 96 h) is over 10000 nM; in data set [3], 21 nM; in data set [4], over 10000 nM; in [5] (P388, 96 h), 45 nM. In addition, the IC50 at 4 days in data set [2] was 40 nM; in the data set on MDR1 it was 440 nM; in the data set on BCRP, 440 nM.

As usually defined, the melting point is the temperature of the solid-liquid transition.
